One assay addresses T1, EP4 (Homo sapiens, UniProt P35408).
T1 construct: host or cells: stably transfected HEK293 cells co-expressing a promiscuous G protein and a clytin variant
Briefly: Functional calcium flux assay, EP4. The class given is cell-based. Particulars: stably transfected HEK293 cells; PGE2 10 nM; read-out: EP4 Ca2+-flux assay IC50.

A further assay addresses EP2 (Homo sapiens, UniProt P43116). As to the kind of experiment: cell-based.

The structures appear in SMILES notation.

T1 sequence (P35408 whole entry): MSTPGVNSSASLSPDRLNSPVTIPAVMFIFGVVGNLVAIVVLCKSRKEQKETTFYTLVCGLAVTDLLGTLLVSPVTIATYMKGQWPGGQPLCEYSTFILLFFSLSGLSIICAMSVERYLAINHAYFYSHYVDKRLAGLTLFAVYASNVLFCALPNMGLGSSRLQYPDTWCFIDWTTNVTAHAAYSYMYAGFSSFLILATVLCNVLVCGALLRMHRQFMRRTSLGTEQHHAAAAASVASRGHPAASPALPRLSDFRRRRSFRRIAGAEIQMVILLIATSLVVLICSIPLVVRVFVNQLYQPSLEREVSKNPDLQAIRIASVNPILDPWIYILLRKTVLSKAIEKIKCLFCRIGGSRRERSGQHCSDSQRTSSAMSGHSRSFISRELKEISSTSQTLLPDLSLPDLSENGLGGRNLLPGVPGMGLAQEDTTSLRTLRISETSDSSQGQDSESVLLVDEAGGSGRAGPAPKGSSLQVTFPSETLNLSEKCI
Chain of EP2 (P43116 whole entry): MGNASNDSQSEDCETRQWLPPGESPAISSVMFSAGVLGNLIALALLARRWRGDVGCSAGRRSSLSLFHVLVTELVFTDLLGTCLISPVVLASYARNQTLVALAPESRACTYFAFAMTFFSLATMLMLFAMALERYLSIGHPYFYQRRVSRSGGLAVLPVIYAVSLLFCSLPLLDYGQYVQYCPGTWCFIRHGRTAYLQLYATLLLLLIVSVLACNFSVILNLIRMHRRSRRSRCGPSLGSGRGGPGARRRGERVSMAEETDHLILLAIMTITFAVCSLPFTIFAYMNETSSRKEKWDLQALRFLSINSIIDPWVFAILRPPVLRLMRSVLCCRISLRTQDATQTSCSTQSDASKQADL
Method for EP2: (§1) Each receptor subtype has an additional promiscuous G protein added in order to couple the aforementioned receptor to the calcium signaling pathway. The parental cell line used also expresses a novel variant of clytin, a calcium-activated photo-protein, to enable sensitive luminescent detection. Briefly, cells were plated at 50,000 cells-per-well in black, clear bottom 96-well plates. The plated cells were allowed to sit at room temperature for 30 min prior to transferring to a humidified, 37° C., 5% CO2 incubator for 18 to 24 h. Assay buffer (HBSS with 20 mM HEPES) and loading buffer (assay buffer plus 10 μM coelenterazine) were prepared on the day of the assay. Assays were performed by aspirating media from the assay plate and washing once with assay buffer, then replacing with loading buffer and allowing the cells to incubate for 1.5 h at room temperature. Compounds were prepared in assay buffer at a 3× final concentration in non-binding plates. Compounds were added to the cell plates and incubated for 30 min at room temperature. The prostanoid receptor ligand PGE2 was prepared at a 4× dilution ratio for a final concentration of 10 nM. Plates were run on a Flexstation™ using a 100 ms integration luminescence protocol for a total of 60 sec with ligand addition at 15 sec. Data were obtained from relative light units as measured by area under the curve.
Method for EP4: as §1

For the compound `CNC(=O)c1cc(-c2ccc(Cn3ncc4c(Cl)ccc(C(=O)NC5CC6(C5)CC(F)(C(=O)O)C6)c43)cc2)ccn1` (racemic) [Example 102, (racemic)-6-(4-chloro-1-(4-(2-(methylcarbamoyl)pyridin-4-yl)benzyl)-1H-indazole-7-carboxamido)-2-fluorospiro[3.3]heptane-2-carboxylic acid], the values for the IC50 on EP4 and on EP2 were 8.9 nM and 81 nM, respectively.
Consider `COc1ccc2cc(-c3ccc(Cn4ccc5c(F)ccc(C(=O)NC6CC7(CC(CC(=O)O)C7)C6)c54)cc3)ccc2n1` (single isomer, unassigned) [Example 140, (Ra)-2-(6-(4-Fluoro-1-(4-(2-methoxyquinolin-6-yl)benzyl)-1H-indole-7-carboxamido)spiro[3.3]heptan-2-yl)acetic acid], for which the values for the IC50 at EP4 and against EP2 were under 1 nM and under 25 nM, respectively.
With `O=C(O)CC1CC2(C1)CC(NC(=O)c1cc(F)cc3cnn(Cc4ccc(-c5ccccc5)cc4)c13)C2` (racemic) [Example 107, (racemic)-2-(6-(1-([1,1′-biphenyl]-4-ylmethyl)-5-fluoro-1H-indazole-7-carboxamido)spiro[3.3]heptan-2-yl)acetic acid], the values for the IC50 on EP4 and at EP2 were under 1 nM and 33 nM, respectively.
Taken in the same sequence, the figures for `COc1cccc(-c2ccc(Cn3ccc4c(F)ccc(C(=O)NC5CC6(CC(CC(=O)O)C6)C5)c43)cc2)n1` (centres unmarked) [Example 150, (Ra)-2-(6-(4-fluoro-1-(4-(6-methoxypyridin-2-yl)benzyl)-1H-indole-7-carboxamido)spiro[3.3]heptan-2-yl)acetic acid] were under 1 nM and 61 nM.
For `CC(c1ccc(-c2ccccc2)cc1)n1ncc2c(Cl)ccc(C(=O)NC3CC4(C3)CC(C(=O)O)C4)c21` (racemic) [Example 121, (Sa)-6-(1-((racemic)-1-([1,1′-biphenyl]-4-yl)-ethyl)-4-chloro-1H-indazole-7-carboxamido)spiro[3.3]heptane-2-carboxylic acid] the same measures were 6.6 nM and under 25 nM.
Taken in the same sequence, the figures for `O=C(NC1CC2(C1)CC(C(=O)O)C2)c1ccc(F)c2ccn(Cc3ccc(-c4ccccc4)cc3F)c12` (centres unmarked) [Example 66, (Sa)-6-(4-Fluoro-1-((3-fluoro-[1,1′-biphenyl]-4-yl)methyl)-1H-indole-7-carboxamido)spiro[3.3]heptane-2-carboxylic acid] were under 1 nM and under 25 nM.
Consider `O=C(NC1CC2(C1)CC(C(=O)O)C2)c1ccc(F)c2ccn(Cc3ccc(-c4ccc(OC5COC5)c(Cl)c4)cc3)c12` (racemic) [Example 21, (racemic)-6-(1-((3′-Chloro-4′-(oxetan-3-yloxy)-[1,1′-biphenyl]-4-yl)methyl)-4-fluoro-1H-indole-7-carboxamido)spiro[3.3]heptane-2-carboxylic acid], for which the IC50 on EP4 was found to be 1 nM; against EP2, 51 nM.
On to `[2H]C([2H])([2H])C([2H])(c1ccc(-c2ccccc2)cc1)n1ncc2cccc(C(=O)NC3CC4(C3)CC(C(=O)O)C4)c21` (single isomer, unassigned) [Example 169, (Sa)-6-(1-((R) or (S)-1-([1,1′-Biphenyl]-4-yl)ethyl-1,2,2,2-d4)-1H-indazole-7-carboxamido)spiro[3.3]heptane-2-carboxylic acid], for which the IC50 at EP4 came out at 1.5 nM; on EP2, 63 nM.
On to `O=C(NC1CC2(C1)CC(C(=O)O)C2)c1cccc2cnn(Cc3ccc(OC(F)(F)F)cc3)c12` (racemic) [Example 32, (racemic)-6-(1-(4-(Trifluoromethoxy)benzyl)-1H-indazole-7-carboxamido)spiro[3.3]heptane-2-carboxylic acid], for which the IC50 was under 1 nM at EP4 and under 25 nM against EP2.
Consider `CC(C)(C)c1ccc(Cn2ccc3c(C#N)ccc(C(=O)NC4CC5(C4)CC(C(=O)O)C5)c32)cc1` (racemic) [Example 27, (racemic)-6-(1-(4-(tert-Butyl)benzyl)-4-cyano-1H-indole-7-carboxamido)spiro[3.3]heptane-2-carboxylic acid], for which the IC50 was under 1 nM on EP4 and 45 nM at EP2.
Take `CCOc1cccc(-c2ccc(Cn3ccc4c(F)ccc(C(=O)NC5CC6(C5)CC(C(=O)O)C6)c43)cc2)c1` (centres unmarked) [Example 54, (Sa)-6-(1-((3’-ethoxy-[1,1′-biphenyl]-4-yl)methyl)-4-fluoro-1H-indole-7-carboxamido)spiro[3.3]heptane-2-carboxylic acid]: the IC50 is under 1 nM on EP4 and 43 nM at EP2.
In the case of `CCOc1cc(-c2ccc(Cn3ncc4cc(Cl)cc(C(=O)NC5CC6(C5)CC(C(=O)O)C6)c43)cc2)ccn1` (centres unmarked) [Example 136, (Sa)-6-(5-chloro-1-(4-(2-ethoxypyridin-4-yl)benzyl)-1H-indazole-7-carboxamido)spiro[3.3]heptane-2-carboxylic acid], the IC50 at EP4 is under 1 nM; at EP2, under 25 nM.
For `COc1ccc(-c2ccc(Cn3ccc4c(F)ccc(C(=O)NC5CC6(C5)CC(C(=O)O)C6)c43)cc2)cc1` (racemic) [Example 12, (racemic)-6-(4-fluoro-1-((4′-methoxy-[1,1′-biphenyl]-4-yl)methyl)-1H-indole-7-carboxamido)spiro[3.3]heptane-2-carboxylic acid] the same measures were under 1 nM and under 25 nM.
Regarding `COc1ncc(-c2ccc(Cn3ccc4c(F)ccc(C(=O)NC5CC6(C5)CC(C(=O)O)C6)c43)cc2)cc1Cl` (racemic) [Example 17, (racemic)-6-(1-(4-(5-Chloro-6-methoxypyridin-3-yl)benzyl)-4-fluoro-1H-indole-7-carboxamido)spiro[3.3]heptane-2-carboxylic acid], the IC50 is 7 nM at EP4 and under 25 nM on EP2.
For `CC(C)(C)c1ccc(Cn2ccc3c(Cl)ccc(C(=O)NC4CC5(C4)CC(C(=O)O)C5)c32)cc1` (racemic) [Example 7, (racemic)-6-(1-(4-(tert-Butyl)benzyl)-4-chloro-1H-indole-7-carboxamido)spiro[3.3]heptane-2-carboxylic acid], the IC50 on EP4 was under 1 nM; against EP2, under 25 nM.
With `O=C(NC1CC2(C1)CC(C(=O)O)C2)c1cccc2cnn(Cc3ccc(-c4ccccc4)cc3)c12` (racemic) [Example 33, (racemic)-6-(1-([1,1′-biphenyl]-4-ylmethyl)-1H-indazole-7-carboxamido)spiro[3.3]heptane-2-carboxylic acid], the IC50 is 3 nM on EP4 and under 25 nM on EP2.
As to `O=C(NC1CC2(C1)CC(C(=O)O)C2)c1ccc(F)c2ccn(Cc3ccc4cc(F)ccc4c3)c12` (racemic) [Example 5, (racemic)-6-(4-fluoro-1-((6-fluoronaphthalen-2-yl)methyl)-1H-indole-7-carboxamido)spiro[3.3]heptane-2-carboxylic acid], the IC50 on EP4 was under 1 nM; on EP2, under 25 nM.
As for `O=C(NC1CC2(C1)CC(C(=O)O)C2)c1ccc(F)c2ccn(Cc3ccc(-c4ccc(OC5COC5)cc4)cc3)c12` (racemic) [Example 23, (racemic)-6-(4-Fluoro-1-((4′-(oxetan-3-yloxy)-[1,1′-biphenyl]-4-yl)methyl)-1H-indole-7-carboxamido)spiro[3.3]heptane-2-carboxylic acid], the IC50 amounted to 1 nM on EP4 and 60 nM at EP2.
As for `CCOc1cc(-c2ccc(Cn3ccc4c(F)ccc(C(=O)NC5CC6(C5)CC(C(=O)O)C6)c43)cc2)ccn1` (racemic) [Example 36, (Racemic)-6-(1-(4-(2-ethoxypyridin-4-yl)benzyl)-4-fluoro-1H-indole-7-carboxamido)spiro[3.3]heptane-2-carboxylic acid], the IC50 was under 1 nM at EP4 and 72 nM against EP2.
Taken in the same sequence, the figures for `COc1ccccc1-c1ccc(Cn2ccc3c(F)ccc(C(=O)NC4CC5(C4)CC(C(=O)O)C5)c32)cc1` (racemic) [Example 18, (racemic)-6-(4-fluoro-1-((2′-methoxy-[1,1′-biphenyl]-4-yl)methyl)-1H-indole-7-carboxamido)spiro[3.3]heptane-2-carboxylic acid] were under 1 nM and 34 nM.
For the compound `COc1ccc(-c2ccc(Cn3ccc4c(F)ccc(C(=O)NC5CC6(C5)CC(C(=O)O)C6)c43)cc2)cc1Cl` (centres unmarked) [Example 25, (Sa)-6-(1-((3′-Chloro-4′-methoxy-[1,1′-biphenyl]-4-yl)methyl)-4-fluoro-1H-indole-7-carboxamido)spiro[3.3]heptane-2-carboxylic acid], the IC50 is under 1 nM at EP4 and under 25 nM on EP2.
For `CS(=O)(=O)NC(=O)C1CC2(CC(NC(=O)c3ccc(F)c4ccn(Cc5ccc(OC(F)(F)F)cc5)c34)C2)C1` (centres unmarked) [Example 111, (Sa)-4-Fluoro-N-(6-((methylsulfonyl)carbamoyl)spiro[3.3]heptan-2-yl)-1-(4-(trifluoromethoxy)benzyl)-1H-indole-7-carboxamide] the same measures were 1.2 nM and 38 nM.
On to `COc1cc(-c2ccc(Cn3ccc4c(F)ccc(C(=O)NC5CC6(C5)CC(C(=O)O)C6)c43)cc2)ccc1F` (racemic) [Example 19, (racemic)-6-(4-fluoro-1-((4′-fluoro-3′-methoxy-[1,1′-biphenyl]-4-yl)methyl)-1H-indole-7-carboxamido)spiro[3.3]heptane-2-carboxylic acid], for which the IC50 on EP4 was under 1 nM; against EP2, under 25 nM.
Regarding `COc1cc(C#N)cc(-c2ccc(Cn3ccc4c(F)ccc(C(=O)NC5CC6(C5)CC(C(=O)O)C6)c43)cc2)c1` (racemic) [Example 20, (racemic)-6-(1-((3′-cyano-5′-methoxy-[1,1′-biphenyl]-4-yl)methyl)-4-fluoro-1H-indole-7-carboxamido)spiro[3.3]heptane-2-carboxylic acid], the IC50 was under 1 nM at EP4 and under 25 nM on EP2.
Taken in the same sequence, the figures for `CC(c1ccc(-c2ccccc2)cc1)n1ncc2cccc(C(=O)NC3CC4(C3)CC(C(=O)O)C4)c21` (racemic) [Example 112, (Sa)-6-(1-((racemic)-1-([1,1′-Biphenyl]-4-yl)-ethyl)-1H-indazole-7-carboxamido)spiro[3.3]heptane-2-carboxylic acid] were 1.8 nM and under 25 nM.

Source of the values: patent publication US12215093B2, “Bicyclic carboxamides and methods of use thereof” (Tempest Therapeutics, Inc., priority 2018, dated 2025).
